The values below come from US20140200137A1, “TREATMENT OF STORED TUBERS WITH COMPOSITIONS OF ALKYL NAPHTHALENES AND HIGHER ALCOHOLS” (1,4 Group, Inc., priority 2013, published 2014).

In series [1] the test system is existing sprouts on post-dormant potatoes with peeps and sprouts extant. Nature of the series: Comparison of sprout suppressing chemicals applied by thermofogging (Example VII). Format: in vivo. To be noted: for Burn “new”: newly emerged sprouts and peeps, generally less than a month; for Burn “new” / Burn “old”: thermofogging at comparable dosages; for Burn “old”: effect upon old sprouts, up to nine months old. The source says: Various sprout suppressing chemicals were compared for their ability to suppress existing sprouts on post-dormant potatoes with peeps and sprouts extant.
In the above table “Burn old” refers to the effect upon old sprouts, which included sprouts up to nine months old, these being generally more difficult to desiccate, while “burn new” refers to newly emerged sprouts and peeps, generally less than a month or so in existence.

In series [2] the test system is stored potatoes with white peeps showing from the eyes. Nature of the series: Thermofogging of 1-nonanol on bulk stored potatoes with white peeps (Example II). It is filed as in vivo. To be noted: thermofogged at about 500° F., 8 ml for 2 kg of potatoes. How it is done: Stored potatoes in bulk storage were treated with 1-nonanol (n-nonyl alcohol) via a thermofogger to determine sprout inhibition. The thermofogger was operated at an aerosol chamber temperature of about 500° F. A good stable aerosol was produced. The alcohol was applied at a dosage of 8 ml for 2 kg of potatoes. The system was open so that the actual dosage reaching the potatoes was considerably less than the fogged amount. In a first bulk storage, the potatoes had white “peeps” showing from the eyes.

The test system of series [3] is potatoes with sprouts averaging in excess of about 2 cm, some up to 8 cm or more. Briefly: Thermofogging on potatoes with very long sprouts (Examples III and IV). Format: in vivo. To be noted: for kill of large sprouts: full strength. How it is done:
In another test, the potatoes were treated with 1-nonanol at the same fogging temperature and dosage for the same period of time to achieve the same application dosage as in Example II. The potatoes in this storage had sprouts averaging in excess of about 2 cm in length. In this experiment, potatoes with very long sprouts, some up to 8 cm or more, were treated 1, 2, and 4 times sequentially with full strength nonanol. This “spray-paint” method was used to try to bring the total amount (rate) of nonanol up to a level capable of killing large sprouts as well as peeps . . . a necessity in commercial settings where sprouts of all sizes exist. […] While this was a small scale test, a whole storage full of potatoes in this condition would likely lead to secondary decays.
The results of Example III led to another experiment where nonanol and DMN were applied.

For the next series, the system named is peeps and sprouts. Briefly: Fogging of 1-nonanol compared with clove oil in burning peeps and sprouts (Example V). To be noted: similar dosages. It is filed as in vivo, potatoes.
Series [4] relates to peeps and sprouts of stored potatoes. Nature of the series: General observations on treatment of stored potatoes with higher alcohols and 1,4-DMN. Format: in vivo. The settings on record: 24 hours after treatment all peeps and sprouts are burned. An excerpt: Higher alcohols, such as 1-octanol and 1-nonanol, are miscible with 1,4-DMN.
It has been observed that the dormancy-like effect produced upon stored potatoes by 1,4-DMN remains, at least to some degree, even as the residue of 1,4-DMN becomes undetectable. Thus, by proper timing of the last treatment of stored potatoes with 1,4-DMN and a subsequent treatment with 1-octanol, 1-nonanol or 1-hexanol, alcohols which are on the GRAS list, both the washed potatoes and any discharged wash water will have no harmful chemicals present. The action of higher alcohols, such as 1-octanol, 1-nonanol and 1-hexanol, on peeps and sprouts is rapid, so that 24 hours after treatment all peeps and sprouts are “burned.”

Another series deals with sprouts on potatoes. Nature of the series: Mixtures of 1,4-DMN with octanol at various volumetric ratios, burn of sprouts (Example VIII). It is filed as in vivo. On the set-up: key: +++: Excellent effect; ++: Very good effect; +: Good effect; —: Negligible effect. The settings on record: total dosage of each mixture constant. An excerpt:
All mixtures provided a more rapid burn of sprouts compared with an equal dosage of octanol or 1,4-DMN alone. The 7:1 ratio of octanol to DMN gave the best results in terms of length of non-sprouting condition before nascent sprouts again appeared.

Series [5] deals with potatoes. To be noted: in vivo; cited from earlier work.
Series [6] deals with potatoes. Nature of the series: Thermofogging of 1-octanol on cold and warmer potatoes, damage to skin and flesh (Example IX). Format: in vivo. On the procedure: The 1-octanol was applied via an electrically […] thermofogger at a fog temperature within the fogger of about 500° F. to obtain a stable aerosol. The potatoes were examined about 24 hours after treatment. […] The potatoes were cut open at the dark spots. Damage to the flesh of the potatoes existed to a depth of about 5 mm to 25 mm. Potato flesh was otherwise undamaged except under the dark spots.

Take `CCCCCOC(C)=O` [AmylAcetate, amyl acetate]: in series [1], the “Burn “new”” value is “++”.
Consider `CCCCCCCCCCO` [1-Decanol], for which, in series [1], the “Burn “old”” value is “++” and the “Burn “new”” value is “++”.
With `CCCCCCCCCCCCO` [Dodecanol], in series [1], the “Burn “old”” value is on record as “−\+” and the “Burn “new”” value is “−”.
Take `CCCCCCCCCO` [1-Nonanol, 1-nonanol]: in series [2], the “damage to potato flesh adjacent the eyes” value is “without any damage to potato flesh”. In addition, the “effect on white peeps” value in series [2] (open system) was “burned to a dark color and were inactivated”. Further, in series [1], the “Burn “old”” value is given as “+++” and the “Burn “new”” value was “+++”. Moreover, in series [1] (in vivo), the “desiccation of existing peeps and sprouts, ranking in the test” value is “most effectively desiccated existing peeps and sprouts”. In series [3] (four sequential applications), the “negative side effect observed” value is “wet, slimy, sprout rot” and the “kill of large sprouts” value was “completely killed”. Further, in series [3] (single or double applications), the “kill of large sprouts” value is reported as “didn't reach a level of nonanol high enough to completely kill these sized sprouts”. For the same compound, the “effectiveness in burning peeps and sprouts relative to clove oil” value with peeps and sprouts is reported as “about four times as effective as clove oil”. Also, in series [4], the “action on peeps and sprouts” value was “rapid”.
Take `CCCCCCCCO` [1:0, octanol]: in the series on sprouts on potatoes, the “Length of Burn” value is reported as “+++” and the “Rapid Burn” value is on record as “++”.
As for `CCCCCCCCCO` [nonyl, nonyl alcohol], in the series with potatoes [5], the “results among alcohols tested by Burton” value is recorded as “Best results”.
Regarding `Cc1ccc(C)c2ccccc12` [1,4-DMN, 1,4 dimethyl naphthalene], in series [1], the “Burn “old”” value is “+” and the “Burn “new”” value is given as “+”.
As for `CCCCCCCCO` [1-Octanol, 1-octanol], in series [1], the “Burn “old”” value is listed as “++” and the “Burn “new”” value is “+++”. The “action on peeps and sprouts” value in series [4] is “rapid”. For the same compound, the “depth of damage to the flesh under the dark spots” value with potatoes [6] (potato, in vivo, 24 h) is reported as 5-25 mm. Also, the “damage to potato skin” value in the series on potatoes [6] (potatoes at about 36° F., fog about 500° F., examined about 24 hours after treatment) was “large dark damaged spots”. In addition, the “injury to potato skin or flesh” value in the series on potatoes [6] (potatoes held at 53° F., similar dosage, fogging temperature and rate) is “did not show injury to the potato skin or to its flesh”.
For `CCCCCO` [amyl, amyl alcohol], in the series with potatoes [5], the “results among alcohols tested by Burton” value is listed as “Best results”.
Turning to `CCCCCCO` [Hexanol, 1-hexanol], in series [1], the “Burn “old”” value is “+” and the “Burn “new”” value is given as “++”. Also, the “action on peeps and sprouts” value in series [4] is “rapid”.
Take `CCCCCCO` [n-hexyl, n-hexyl alcohol]: in the series with potatoes [5], the “results among alcohols tested by Burton” value is reported as “Worst results”.
On to `CCCCC(CC)CO` (centres unmarked) [2-ethyl-hexan-1-01], for which the “results among alcohols tested by Burton” value in the series on potatoes [5] is listed as “Worst results”.
